Test results reported in patent US5604095A, “Unsymmetrically linked bisnaphthalimides as antitumor agents” (Cancer Therapy & Research Center, priority 1994, dated 1997).

Tested on: B16 melanoma
Assay: In vivo tumor inhibiting activity vs. B16 melanoma in B6D2F1 mice
Settings: 300 mg/kg, q.d. × 1, i.p., day 7
Protocol: B16 Melanoma: B6D2F1 mice received i.p. inocula of B16 murine melanoma brei prepared from B16 tumors growing subcutaneously in mice (day 0). On day 1, rumored mice were treated with drugs or vehicle control; the route of drug administration and schedule were selected as appropriate for the study in question. If dosing information for agents was not available, the maximum tolerated dose (MTD) was determined in initial dose finding experiments in non-rumored mice. In a typical experiment, drugs were given at their MTD and 1/2 MTD doses i.p. on a daily×5 schedule.
The mean survival times of all groups were calculated, and results were expressed as mean survival of treated mice/mean survival of control mice (T/C)×100%. A T/C value of 150 means that the mice in the treated group lived 50% longer than those of the control group; this is sometimes referred to as the increase in life space, or ILS value.
Mice that survived for 60 days were considered long term survivors, or cures, in the B16 model. The universally accepted cut-off for activity in this model, which has been used for years by the National Cancer Institute, is T/C=125. Conventional use of B16 over the years has set the following levels of activity: T/C<125, no activity; T/C=125-150, weak activity; T/C=150-200, modest activity; T/C=200-300, high activity; T/C>300, with long term survivors, excellent, curative activity (Goldin et al., 1981).
Statistics were performed on the data using primarily the log rank p-value test.

O=P1(N(CCCl)CCCl)NCCCO1 (stereo not shown) [Cytoxan]
Wt. Ch. (Day 7): -6.6%
